Measured values as given in patent publication US10799478B2, “Treatment of androgen deprivation therapy associated symptoms” (priority 2014, dated 2020).

Key:
[1] = system: beagle dogs; test: 52 Week Toxicity and Toxicokinetic Study in Dogs; type: in vivo, dog
Description: (§1) Male and female purebred beagle dogs are assigned to groups, and doses are administered according to Table 9 via oral capsules containing 1 ml/kg of 0 [1% (w/v) carboxymethylcellulose sodium (low viscosity/25-50 cps), 0.5% (w/v) sodium lauryl sulfate and 0.05% (v/v) Dow Corning® Antifoam 1510-US in reverse osmosis water] […] All animals receive the same number of capsules, and Group 1 animals receive capsules containing vehicle control article only. Three animals per sex from Groups 1 and 4 are designated as recovery animals.
(§2) Assessment of toxicity is based on mortality, clinical signs, body weight and body weight change, food consumption, ophthalmic and neurologic evaluations, ECG measurements, hormone analysis (testosterone, progesterone, luteinizing hormone, and follicle stimulating hormone), semen evaluation (ejaculate volume and sperm number, density, morphology, and motility), and clinical and anatomic pathology. Blood samples are collected for exploratory metabolite analysis and toxicokinetic evaluations.

[2] = 52 Week Toxicity and Toxicokinetic Study in Dogs; type: in vivo, dog; conditions: beagle, dog, in vivo; for Cmax / AUC(0-t): po
Description: as §1, §2

[3] = Four Week Oral Toxicity Study in Rats; type: in vivo, rat; conditions: CD [Crl:CD (SD)], rat
Description: (§3) Three treatment groups of 10 male and 10 female CD® [Crl:CD® (SD)] rats are administered the test article at respective dose levels of 15, 150, and 1500 mg/kg/day. […] The test article or vehicle is administered to all groups via oral gavage, once a day for 28 consecutive days, at a dose volume of 15 mL/kg. Additionally, three groups of 18 animals/sex/group serves as toxicokinetic (TK) animals and receives the test article in the same manner and dose volume as the main study groups at respective dose levels of 15, 150, and 1500 mg/kg/day. One additional group of three animals/sex serves as the toxicokinetic control and receives the vehicle in the same manner and dose volume as the treated groups.
(§4) Observations for morbidity, mortality, injury, and the availability of food and water are conducted twice daily for all animals. Observations for clinical signs are conducted weekly for main study animals only. Body weights were measured and recorded weekly for all animals and food consumption is measured and recorded weekly for main study animals. Ophthalmoscopic examinations are conducted pretest on all animals and prior to terminal necropsy for main study animals only. Blood samples for clinical pathology evaluations are collected from all main study animals at necropsy. Urine samples are collected on the last day of dosing. Blood samples for determination of the plasma concentrations of the test article are collected from TK animals at designated time points on Days 1 and 28. After the final blood collection, the TK animals are euthanized and the carcasses are discarded without further evaluation. Liver samples for hepatic enzyme induction analysis are collected at terminal necropsy from main study animals. At study termination, necropsy examinations are performed, organ weights are recorded, and prostate and seminal vesicle tissues are microscopically examined. Additional microscopic examination is performed on the left testis from the first five male rats/group at necropsy.

[4] = system: CD [Crl:CD (SD)] rats; test: Four Week Oral Toxicity Study in Rats; type: in vivo, rat; conditions: for decrease in albumin / decrease in total protein / increase in alkaline phosphatase: females
Description: as §3, §4

[5] = system: male rats; test: Male Fertility and Toxicokinetic Study in Rats; type: in vivo, rat
Description: The purpose of this study is to determine the potential adverse effects in the reproductive process resulting from treatment of male rats prior to, and during, the mating period. This includes identification of functional reproductive effects in the male.
Male rats (20/group) are treated daily for 10 weeks prior to mating, throughout the 3-week mating period, and continuing through the day prior to euthanasia (for a total of 100 to 101 doses). Female rats are not treated. All animals are observed twice daily for moribundity and mortality. Clinical observations are recorded daily for male rats; body weights and food consumption are recorded for males twice weekly. All males are euthanized 1 day following the last dose administration. Spermatogenic endpoint evaluations conducted on all males include motility and morphology and epididymal sperm concentration. Testes, epididymis, prostate and seminal vesicle/coagulating gland/fluid from all males are weighed and retained. Testes, epididymis, prostate, seminal vesicles and coagulating glands from surviving males are examined microscopically. A laparohysterectomy is performed on Gestation Day 15 for each female with evidence of mating. An additional 3, 18, 18, and 18 males assigned to the toxicokinetic phase are given the compound at doses of 0, 3, 30, and 1000 mg/kg, respectively, and are sampled for toxicokinetic evaluation at appropriate intervals following dose administration on Study Days 0 and 70.

[6] = system: healthy human volunteers; test: Phase Ia Study in Healthy Volunteers; type: in vivo; conditions: for Change from Baseline for Lean Muscle, Comparison to Placebo Difference / Change from Baseline for Lean Muscle, LS Mean: Day 28
[7] = system: dogs; test: 6 month treatment of dogs (Table 10); type: in vivo, dog; conditions: 6 months

In the case of `CC(C)OC(=O)N[C@H]1Cc2c(n(Cc3ccccn3)c3ccc(C#N)cc23)C1` (single isomer, unassigned) [Example 1], the “survival until the scheduled sacrifice” value ([1]; 3, 10, 100 mg/kg) is reported as “All animals survived”, the “Accumulation after multiple dosing” value ([1]; dogs, 3 to 100 mg/kg) is reported as “observed” and the NOAEL at 52 weeks ([2]; both sexes, oral, daily capsule, 52 weeks) is reported as 100 mg/kg. For the same molecule, the Cmax ([2]; female, females, 100 mg/kg, after 361 days of dosing) was 1880 ng/mL, the AUC(0-t) ([2]; female, females, 100 mg/kg, after 361 days of dosing, read-out: AUC0-24 h) was 31500 ng·h/mL and the AUC(0-t) ([2]; male, dogs, 12 months, 3 mg/kg/day, read-out: Male group mean AUC0-24 hr near termination) was 3620 ng·h/mL. The Cmax ([2]; male, males, 100 mg/kg, after 361 days of dosing) was 1500 ng/mL, the NOAEL at 28 days ([3]; both sexes, in vivo, 4 weeks oral gavage, highest dose administered) was 1500 mg/kg/day and the AUC(0-t) ([3]; female, plasma, oral, females, 1500 mg/kg/day, read-out: Mean steady-state systemic exposure (AUC0-24 hr)) was 217000 ng·h/mL. For the same molecule, the “systemic exposure (AUC0-24 hr) increase with dose” value ([4]; 15, 150, 1500 mg/kg/day oral gavage) was “less-than-dose-proportional”, the unscheduled deaths ([4]; 15-1500 mg/kg/day, 28 days) was “no unscheduled deaths” and the decrease in albumin ([4]; 150 mg/kg/day) was 12%. For the same molecule, the “decrease in total protein” value ([4]; 150 mg/kg/day) was 9%, the “increase in alkaline phosphatase” value ([4]; 150 mg/kg/day) was 1.33 fold and the decrease in albumin ([4]; 1500 mg/kg/day) was 12%. For the same molecule, the “decrease in total protein” value ([4]; 1500 mg/kg/day) was 10%, the “increase in alkaline phosphatase” value ([4]; 1500 mg/kg/day) was 1.45 fold and the “hepatic microsomal enzyme induction” value ([4]; following 28 days of dosing) was “no evidence”. The “mating, fertility, and copulation indices” value ([5]; 1000 mg/kg group males) was “lower”, the “increase of mean exposure (AUC0-24 hr) between 3 and 30 mg/kg” value ([5]; Day 0) was “approximately 7.8 fold” and the “increase of mean exposure (AUC0-24 hr) between 3 and 30 mg/kg” value ([5]; Day 70) was about 4.5 fold. The “Mean body weights, body weight gains, and food consumption” value ([5]; all dosage levels) was “unaffected”, the “Intrauterine survival of the embryos” value ([5]; males dosed 3, 30, 1000 mg/kg) was “unaffected” and the “changes from baseline in prostate-specific antigen levels compared with placebo” value ([6]; any time point or any dose) was “no significant changes”. The “Change from Baseline for Lean Muscle, Comparison to Placebo Difference” value ([6]; females, 5 mg) was 2298.22 g, the “Change from Baseline for Lean Muscle, LS Mean” value ([6]; females, 5 mg) was 1555.95 g and the “Change from Baseline for Lean Muscle, Comparison to Placebo Difference” value ([6]; females, 15 mg) was 3661.85 g. The “Change from Baseline for Lean Muscle, LS Mean” value ([6]; females, 15 mg) was 2919.58 g, the “Change from Baseline for Lean Muscle, Comparison to Placebo Difference” value ([6]; females, 25 mg) was 2224.51 g and the “Change from Baseline for Lean Muscle, LS Mean” value ([6]; females, 25 mg) was 1482.24 g. For the same molecule, the “Change from Baseline for Lean Muscle, Comparison to Placebo Difference” value ([6]; females, 75 mg) was 2325.92 g, the “Change from Baseline for Lean Muscle, LS Mean” value ([6]; females, 75 mg) was 1583.65 g and the “Change from Baseline for Lean Muscle, Comparison to Placebo Difference” value ([6]; males, 1 mg) was 1548.97 g. For the same molecule, the “Change from Baseline for Lean Muscle, LS Mean” value ([6]; males, 1 mg) was 675.52 g, the “Change from Baseline for Prostate Specific Antigen, Comparison to Placebo Difference” value ([6]; males, 1 mg, day 14) was -0.10 µg/L and the “Change from Baseline for Prostate Specific Antigen, LS Mean” value ([6]; males, 1 mg, day 14) was -0.06 µg/L. The “Change from Baseline for Prostate Specific Antigen, Comparison to Placebo Difference” value ([6]; males, 1 mg, day 28) was -0.09 µg/L, the “Change from Baseline for Prostate Specific Antigen, LS Mean” value ([6]; males, 1 mg, day 28) was -0.05 µg/L and the “Change from Baseline for Prostate Specific Antigen, Comparison to Placebo Difference” value ([6]; males, 1 mg, day 35) was -0.01 µg/L. The “Change from Baseline for Prostate Specific Antigen, LS Mean” value ([6]; males, 1 mg, day 35) was 0.02 µg/L, the “Change from Baseline for Lean Muscle, Comparison to Placebo Difference” value ([6]; males, 5 mg) was 1461.11 g and the “Change from Baseline for Lean Muscle, LS Mean” value ([6]; males, 5 mg) was 587.66 g. The “Change from Baseline for Prostate Specific Antigen, Comparison to Placebo Difference” value ([6]; males, 5 mg, day 14) was 0.16 µg/L, the “Change from Baseline for Prostate Specific Antigen, LS Mean” value ([6]; males, 5 mg, day 14) was 0.20 µg/L and the “Change from Baseline for Prostate Specific Antigen, Comparison to Placebo Difference” value ([6]; males, 5 mg, day 28) was -0.05 µg/L. The “Change from Baseline for Prostate Specific Antigen, LS Mean” value ([6]; males, 5 mg, day 28) was -0.00 µg/L, the “Change from Baseline for Prostate Specific Antigen, Comparison to Placebo Difference” value ([6]; males, 5 mg, day 35) was 0.17 µg/L and the “Change from Baseline for Prostate Specific Antigen, LS Mean” value ([6]; males, 5 mg, day 35) was 0.20 µg/L. The “Change from Baseline for Lean Muscle, Comparison to Placebo Difference” value ([6]; males, 15 mg) was 3202.54 g, the “Change from Baseline for Lean Muscle, LS Mean” value ([6]; males, 15 mg) was 2329.08 g and the “Change from Baseline for Prostate Specific Antigen, Comparison to Placebo Difference” value ([6]; males, 15 mg, day 14) was -0.16 µg/L. The “Change from Baseline for Prostate Specific Antigen, LS Mean” value ([6]; males, 15 mg, day 14) was -0.11 µg/L, the “Change from Baseline for Prostate Specific Antigen, Comparison to Placebo Difference” value ([6]; males, 15 mg, day 28) was -0.31 µg/L and the “Change from Baseline for Prostate Specific Antigen, LS Mean” value ([6]; males, 15 mg, day 28) was -0.27 µg/L. The “Change from Baseline for Prostate Specific Antigen, Comparison to Placebo Difference” value ([6]; males, 15 mg, day 35) was 0.22 µg/L, the “Change from Baseline for Prostate Specific Antigen, LS Mean” value ([6]; males, 15 mg, day 35) was 0.25 µg/L and the “Change from Baseline for Lean Muscle, Comparison to Placebo Difference” value ([6]; males, 25 mg) was 1829.63 g. For the same molecule, the “Change from Baseline for Lean Muscle, LS Mean” value ([6]; males, 25 mg) was 956.18 g, the “Change from Baseline for Prostate Specific Antigen, Comparison to Placebo Difference” value ([6]; males, 25 mg, day 14) was -0.19 µg/L and the “Change from Baseline for Prostate Specific Antigen, LS Mean” value ([6]; males, 25 mg, day 14) was -0.15 µg/L. The “Change from Baseline for Prostate Specific Antigen, Comparison to Placebo Difference” value ([6]; males, 25 mg, day 28) was -0.27 µg/L, the “Change from Baseline for Prostate Specific Antigen, LS Mean” value ([6]; males, 25 mg, day 28) was -0.22 µg/L and the “Change from Baseline for Prostate Specific Antigen, Comparison to Placebo Difference” value ([6]; males, 25 mg, day 35) was -0.17 µg/L. The “Change from Baseline for Prostate Specific Antigen, LS Mean” value ([6]; males, 25 mg, day 35) was -0.14 µg/L, the “Change from Baseline for Lean Muscle, Comparison to Placebo Difference” value ([6]; males, 75 mg) was -683.76 g and the “Change from Baseline for Lean Muscle, LS Mean” value ([6]; males, 75 mg) was -1557.21 g. The “Change from Baseline for Prostate Specific Antigen, Comparison to Placebo Difference” value ([6]; males, 75 mg, day 14) was -0.17 µg/L, the “Change from Baseline for Prostate Specific Antigen, LS Mean” value ([6]; males, 75 mg, day 14) was -0.13 µg/L and the “Change from Baseline for Prostate Specific Antigen, Comparison to Placebo Difference” value ([6]; males, 75 mg, day 28) was 0.03 µg/L. The “Change from Baseline for Prostate Specific Antigen, LS Mean” value ([6]; males, 75 mg, day 28) was 0.07 µg/L, the “Change from Baseline for Prostate Specific Antigen, Comparison to Placebo Difference” value ([6]; males, 75 mg, day 35) was 0.00 µg/L and the “Change from Baseline for Prostate Specific Antigen, LS Mean” value ([6]; males, 75 mg, day 35) was 0.03 µg/L. The “Prostate weight (mean % decrease)” value ([7]; 3 mg/kg/day) was “↓ 63%”, the “Prostate weight (mean % decrease)” value ([7]; 30 mg/kg/day) was “↓ 66%” and the “Prostate weight (mean % decrease)” value ([7]; 300 mg/kg/day) was “↓ 75%”.
